The text below walks through data of article PMC3481155, “AhR activation underlies the CYP1A autoinduction by A-998679 in rats” (Frontiers in Genetics, 2012).

Data set [1] deals with T1, AhR (Homo sapiens, UniProt P35869).
T1 construct: endogenous in cells; host or cells: HepG2
T1 sequence (P35869 11-848): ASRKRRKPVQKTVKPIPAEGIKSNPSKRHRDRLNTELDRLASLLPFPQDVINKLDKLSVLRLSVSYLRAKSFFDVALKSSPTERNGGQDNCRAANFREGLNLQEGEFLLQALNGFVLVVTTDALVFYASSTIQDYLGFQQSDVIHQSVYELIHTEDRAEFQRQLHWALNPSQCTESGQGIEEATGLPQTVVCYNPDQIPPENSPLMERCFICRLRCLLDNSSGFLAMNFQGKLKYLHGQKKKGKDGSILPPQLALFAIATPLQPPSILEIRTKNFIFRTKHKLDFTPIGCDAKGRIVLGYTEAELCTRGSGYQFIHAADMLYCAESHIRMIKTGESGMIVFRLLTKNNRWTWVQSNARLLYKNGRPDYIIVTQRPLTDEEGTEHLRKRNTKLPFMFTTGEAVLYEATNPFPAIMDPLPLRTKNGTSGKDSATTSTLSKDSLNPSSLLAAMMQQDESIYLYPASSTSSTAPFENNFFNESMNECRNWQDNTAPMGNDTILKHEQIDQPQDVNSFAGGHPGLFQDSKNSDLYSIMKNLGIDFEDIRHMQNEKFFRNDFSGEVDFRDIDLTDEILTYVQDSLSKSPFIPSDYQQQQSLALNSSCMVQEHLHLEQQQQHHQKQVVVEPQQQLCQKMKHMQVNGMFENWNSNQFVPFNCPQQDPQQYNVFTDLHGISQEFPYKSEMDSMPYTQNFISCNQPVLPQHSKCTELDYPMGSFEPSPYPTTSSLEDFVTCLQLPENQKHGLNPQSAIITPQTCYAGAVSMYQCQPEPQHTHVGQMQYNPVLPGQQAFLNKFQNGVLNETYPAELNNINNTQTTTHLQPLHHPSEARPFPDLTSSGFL
In words: AhR nuclear translocation assay in HepG2 cells. Type of data set: cell-based. The settings on record: 2 μM. On the procedure:
HepG2 cells were plated in Lab-Tek II Chamber slides (Nalgene, Rochester, NY) at a seeding density of 50,000 cells/well. The cells were allowed to attach overnight and were treated for 2 h or 24 h with 10 or 40 μM A-998679, 2 μM 3-methylchloranthrene (3-MC) as a positive control, or 0.1% (v/v) DMSO vehicle. The cells were fixed in fresh 3% paraformaldehyde solution in PBS followed by a PBS wash, and were then permeabilized for 5 min using 0.2% Triton X-100 in PBS followed by another PBS wash. The cells were then incubated with blocking buffer consisting of 1% BSA/PBS solutions and immediately incubated with a 1:50 dilution of rabbit polyclonal antibody to AhR (Abcam, Cambridge, MA catalog# 63636) for 1 h at 37°C. Cells were then washed with PBS, re-blocked for 10 min, and stained with an Alexa 546 donkey anti-rabbit secondary antibody (diluted 1:200; Invitrogen Life Technologies) for 45 min at 37°C. The cells were then washed with PBS, stained with 0.5 μM Hoescht solution for 15 min, and again washed with PBS. The chamber slides were sealed and examined under the microscope. Images were acquired with a SPOT RT SE digital camera (Diagnostic Instruments, Sterling Heights, MI) mounted on a Leica (Wetzlar, Germany) DMIRE inverted florescence microscope using a 20× objective. Image acquisition was done using Metamorph® software (Molecular Devices, Sunnyvale, CA) and percent translocation of the AhR probe was quantitated using MetaXpress (Molecular Devices). Twenty microscope fields were evaluated per well (~3000–6000 cells/well).

Data set [2] addresses T2, aryl hydrocarbon receptor (AhR) (Homo sapiens, UniProt P35869).
T2 construct: endogenous in cells; host or cells: HepG2
T2 sequence (P35869 11-848): T1 sequence (P35869 11-848)
Briefly: AhR luciferase reporter assay in HepG2 cells. Type of data set: cell-based. On the procedure: HepG2 cells were transiently transfected overnight with the construct (1200 bp portion of the human CYP1A1 promoter region containing 2 copies of the functional consensus sequence for the DRE in luc2P luciferase vector (SwitchGear Genomics cat# 114555, Menlo Park, CA) using lipofectin (Invitrogen Life Technologies) at 500 ng construct per million cells. Following transfection, the cells were replated in a 96-well format and dosed for 24 h with 0.1% (v/v) DMSO vehicle, 3-MC at 0.05, 0.1, 0.5, 1, 5, 10 μM, and A-998679 at 1.5625, 3.125, 6.25, 12.5, 25, and 50 μM. Luminescence signal was generated using the Dual-Luciferase Reporter Assay System (Promega, Madison, WI) and detected with a Tecan Genios Pro reader (Männedorf, Switzerland).
(In general: Reporter assays use an easily measured gene product as a stand-in for the process of interest.)

The subject of data set [3] is AhR. Set-up: method as in Nguyen and Bradfield, 2008; Mitchell and Elferink, 2009. The settings on record: ref Nguyen and Bradfield, 2008, Mitchell and Elferink, 2009; cited from earlier work.
Data set [4] deals with AhR. Set-up: method as in Jinno et al., 2006. The settings on record: ref Jinno et al., 2006, read-out: reporter assay EC50; cited from earlier work.

In general, EC50 refers to the concentration that produces a half-maximal response. Turning to `Cc1ccc2cc3c(ccc4ccccc43)c3c2c1CC3` [3MC, 3-methylcholanthrene, reference compound], the “AhR nuclear staining (% positive cells) 2 h” value at AhR [1] (2 h, vehicle 15.6) is 26.3 % positive cells. On AhR [1] (24 h, vehicle 3.4), the “AhR nuclear staining (% positive cells) 24 h” value turned out to be 11.1 % positive cells. Also, the “potency to activate AhR relative to A-998679” value in data set [2] (luciferase reporter) is reported as ~ 8 fold. The EC50 in data set [2] (luciferase reporter with human DRE construct, 24 h, read-out: EC50, activation of AhR signaling) was 2.1 µM. Besides, in data set [2] (luciferase reporter, 24 h), the “maximal increase over vehicle” value was determined as 97 fold.
For the molecule `Clc1cc2c(cc1Cl)Oc1cc(Cl)c(Cl)cc1O2` [TCDD, 2,3,7,8-Tetrachlorodibenzo-p-dioxin], the “binding EC50” value with AhR [3] was “~ pM to nM range”.
Consider `C[C@]12CCc3c(ccc4cc(O)ccc34)[C@@H]1CCC2=O` [equilenin], for which the EC50 in the data set with AhR [4] was about 10 µM.
